Assay results published in US20240025852A1, “T-TYPE CALCIUM CHANNEL MODULATORS AND METHODS OF USE THEREOF” (PRAXIS PRECISION MEDICINES, INC., priority 2020, published 2024).

Experiments:
[1] = Hμrel Low Clearance Assay; format: in vitro ADME, human; parameters: % of Control (intrinsic clearance relative to the control compound): tested at 1 µM; settings: HμRELhumanPool 96-well hepatic co-culture, human hepatic co-culture, 1 μM substrate, 0-72 hr incubation, control = geometric mean of 3 replicates
Method: (§1) The Hμrel Low Clearance Assay was performed to determine the stability of deuterated compounds described herein and calculate changes in clearance relative to the control compound (undeuterated compound) that has the following structure:
(§2) HμRELhumanPool™ 96-well hepatic co-culture plates were media changed and cells were allowed to acclimatize at 37° C. for 20 hr. HμREL® incubation media (serum free) and test compound diluted from a 1000×DMSO stock (final substrate concentration 1 μM; final DMSO concentration 0.1%) were added to the HμREL© 96-well co-culture system at a final cell number of 30,000 cells per well to initiate the reaction. The final incubation volume was 80 μL per time point and two control compounds were included for reference (ketoprofen and prednisolone). All clearance assessments were performed in singlicate with the exception of the undeuterated control compound, which was tested in duplicate on two separate days for a total of 4 replicates. Each compound was incubated for 0, 2, 6, 24, 48 and 72 hr. The reactions were terminated by transferring 60 μL of incubate to 180 μL acetonitrile containing internal standard at the appropriate time points. The crash plates were centrifuged at 3000 rpm at 4° C. for 20 min to precipitate residual protein. Following protein precipitation, sample supernatants were combined in cassettes of up to 4 compounds and analyzed using generic LCMS/MS conditions.
(§3) LC-MS/MS chromatograms were analyzed by peak area ratio (test article peak area/internal standard peak area) and natural log transformed, and plotted against time. The slope of the line was determined to calculate elimination rate constant. Subsequently, half-life (t1/2) and intrinsic clearance (CLint) were calculated using the following equations: […]
(§4) Average clearance of the control compound was determined by taking the geometric mean of 3 of the four replicates. The fourth replicate was excluded from the average determination as an outlier.

[2] = tested on: HμRELhumanPool 96-well hepatic co-culture; experiment: Hμrel Low Clearance Assay; format: in vitro ADME, human; parameters: % of Control (intrinsic clearance relative to the control compound): tested at 1 µM; settings: for Half-Life: human hepatic co-culture, 1 μM substrate, 0-72 hr incubation; for % of Control (intrinsic clearance relative to the control compound): observed CLint divided by average CLint of undeuterated control compound
Method: as §1, §2, §3, §4

[3] = biological target: T1, Recombinant CYP3A4 Supersomes (Homo sapiens, UniProt P08684); experiment: Recombinant CYP3A4 Clearance Assay; format: in vitro ADME; settings: for % of Control (intrinsic clearance relative to the control compound): observed CLint divided by average CLint of undeuterated control compound; for Half-Life / CLint: recombinant CYP3A4 50 pmol/mL, 1 μM substrate, NADPH; for Half-Life: 0-120 minutes; for CLint: control = geometric mean of 3 replicates
T1 construct: purchased
T1 sequence (P08684 whole entry): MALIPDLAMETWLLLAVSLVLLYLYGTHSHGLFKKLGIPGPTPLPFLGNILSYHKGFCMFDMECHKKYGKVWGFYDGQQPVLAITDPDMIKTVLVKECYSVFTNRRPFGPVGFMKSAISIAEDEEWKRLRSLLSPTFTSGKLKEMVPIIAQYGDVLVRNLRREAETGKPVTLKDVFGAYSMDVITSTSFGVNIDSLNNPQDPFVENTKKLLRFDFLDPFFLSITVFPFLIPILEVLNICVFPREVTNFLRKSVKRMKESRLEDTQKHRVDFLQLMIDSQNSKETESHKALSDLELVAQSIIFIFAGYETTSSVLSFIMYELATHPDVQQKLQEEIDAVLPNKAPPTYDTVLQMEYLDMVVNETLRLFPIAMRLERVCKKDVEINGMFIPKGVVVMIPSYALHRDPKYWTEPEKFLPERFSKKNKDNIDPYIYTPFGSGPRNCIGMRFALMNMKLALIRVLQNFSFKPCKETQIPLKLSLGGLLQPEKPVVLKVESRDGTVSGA
Method: The CYP3A4 Clearance Assay was performed to determine the stability of deuterated compounds described herein and calculate changes in clearance relative to the control compound (undeuterated compound) that has the following structure:
Recombinant CYP3A4 Supersomes were prepared in 100 mM potassium phosphate buffer (50 pmol/mL final recombinase) and 80 μL aliquots were delivered per well to 96-well reaction plates containing 10 μL/well stock working solution containing substrate at 10× final concentration in 0.1:9.9:90 DMSO:ACN:100 mM phosphate buffer. Final substrate concentration during incubation was 1 μM. Reaction mixtures were pre-incubated at 37° C. for 10 minutes, prior to addition of 10 μL/well of NADPH regenerating system to initiate the reaction (β-Nicotinamide adenine dinucleotide phosphate) or 100 mM phosphate as a buffer control.
Clearance assessments were performed for test compounds in singlicate except for the control compound, which was tested in triplicate. Incubations were maintained at 37° C. for 0, 5, 15, 30, 45, 60, 90, and 120 minutes (or 0 and 120 minutes for buffer control). The reactions were terminated with 3× volume of cold (4° C.) acetonitrile (ACN) containing 200 ng/mL tolbutamide and 200 ng/mL labetalol as internal standards (IS). The crash plates were centrifuged at 4000 rpm at 4° C. for 20 min to precipitate residual protein. Following protein precipitation, sample supernatants were harvested and 3× volume of HPLC grade water was added to each sample for chromatography purposes. Plates were sealed and shaken for 10 minutes prior to LC-MS/MS analysis using generic LCMS/MS conditions.
as §3
Average intrinsic clearance of the control compound was determined by taking the geometric mean of 3 replicates.

Row | SMILES | hepatocyte CLint at 1 μM ([1]; human) | Half-Life [2] | % of Control (intrinsic clearance relative to the control compound) [2] | % of Control (intrinsic clearance relative to the control compound) [3] | Half-Life [3] | CLint [3] | hepatocyte CLint at 1 μM [1]
1 | [2H]C([2H])(C(=O)NC(C([2H])([2H])[2H])(C([2H])([2H])[2H])C([2H])([2H])[2H])N1CCC(CNC(=O)c2cc(F)cc(Cl)c2)CC1 [Compound 15, 3-chloro-N-[[1-[1,1-dideuterio-2-oxo-2-[[2,2,2-trideuterio-1,1-bis(trideuteriomethyl)ethyl]amino]ethyl]-4-piperidyl]methyl]-5-fluoro-benzamide] | 1.35 µL/min/1e6 cells | 22.67 h | 95.4% | 82.9% | 0.158 h | 1.46 µL/min/pmol | 
2 | [2H]C1([2H])CC(CNC(=O)c2cc(F)cc(Cl)c2)CC([2H])([2H])N1CC(=O)NC(C([2H])([2H])[2H])(C([2H])([2H])[2H])C([2H])([2H])[2H] [Compound 16, 3-chloro-5-fluoro-N-[[2,2,6,6-tetradeuterio-1-[2-oxo-2-[[2,2,2-trideuterio-1,1-bis(trideuteriomethyl)ethyl]amino]ethyl]-4-piperidyl]methyl]benzamide] |  | 28.33 h | 76.3% | 61.4% | 0.213 h | 1.08 µL/min/pmol | 1.08 µL/min/1e6 cells
3 | [2H]C([2H])([2H])C(C)(NC(=O)CN1C([2H])([2H])C([2H])([2H])C([2H])(CNC(=O)c2cc(F)cc(Cl)c2)C([2H])([2H])C1([2H])[2H])C([2H])([2H])[2H] [Compound 20, 3-chloro-5-fluoro-N-[[2,2,3,3,4,5,5,6,6-nonadeuterio-1-[2-oxo-2-[[2,2,2-trideuterio-1-methyl-1-(trideuteriomethyl)ethyl]amino]ethyl]-4-piperidyl]methyl]benzamide] | 0.803 µL/min/1e6 cells | 38.33 h | 56.7% | 61.5% | 0.213 h | 1.08 µL/min/pmol | 
4 | [2H]C([2H])(C(=O)NC(C)(C)C([2H])([2H])[2H])N1CCC(CNC(=O)c2cc(F)cc(Cl)c2)CC1 [Compound 21, 3-chloro-N-[[1-[1,1-dideuterio-2-oxo-2-[(2,2,2-trideuterio-1,1-dimethyl-ethyl)amino]ethyl]-4-piperidyl]methyl]-5-fluoro-benzamide] | 1.46 µL/min/1e6 cells | 21.17 h | 103% | 94.4% | 0.138 h | 1.66 µL/min/pmol | 
5 | [2H]C1([2H])CC(CNC(=O)c2cc(F)cc(Cl)c2)CC([2H])([2H])N1CC(=O)NC(C)(C)C([2H])([2H])[2H] [Compound 22, 3-chloro-5-fluoro-N-[[2,2,6,6-tetradeuterio-1-[2-oxo-2-[(2,2,2-trideuterio-1,1-dimethyl-ethyl)amino]ethyl]-4-piperidyl]methyl]benzamide] | 0.872 µL/min/1e6 cells | 35.33 h | 62.6% | 87.5% | 0.15 h | 1.54 µL/min/pmol | 

Now from value to compound, other results behind:

Row | hepatocyte CLint at 1 μM ([1]; human) | Half-Life [2] | % of Control (intrinsic clearance relative to the control compound) [2] | % of Control (intrinsic clearance relative to the control compound) [3] | Half-Life [3] | CLint [3] | SMILES | hepatocyte CLint at 1 μM [1]
6 | 1.18 µL/min/1e6 cells | 26.17 h | 83.4% | 72.2% | 0.182 h | 1.27 µL/min/pmol | [2H]C([2H])(C(=O)NC(C)(C([2H])([2H])[2H])C([2H])([2H])[2H])N1CCC(CNC(=O)c2cc(F)cc(Cl)c2)CC1 [Compound 17, 3-chloro-N-[[1-[1,1-dideuterio-2-oxo-2-[[2,2,2-trideuterio-1-methyl-1-(trideuteriomethyl)ethyl]amino]ethyl]-4-piperidyl]methyl]-5-fluoro-benzamide] | 
7 | 0.718 µL/min/1e6 cells | 43 h | 51.5% | 62.2% | 0.212 h | 1.09 µL/min/pmol | [2H]C1([2H])CC(CNC(=O)c2cc(F)cc(Cl)c2)CC([2H])([2H])N1CC(=O)NC(C)(C([2H])([2H])[2H])C([2H])([2H])[2H] [Compound 19, 3-chloro-5-fluoro-N-[[2,2,6,6-tetradeuterio-1-[2-oxo-2-[[2,2,2-trideuterio-1-methyl-1-(trideuteriomethyl)ethyl]amino]ethyl]-4-piperidyl]methyl]benzamide] | 
8 | 0.908 µL/min/1e6 cells | 34 h | 65.2% | 86.2% | 0.152 h | 1.52 µL/min/pmol | [2H]C1([2H])CN(CC(=O)NC(C)(C([2H])([2H])[2H])C([2H])([2H])[2H])CC([2H])([2H])C1CNC(=O)c1cc(F)cc(Cl)c1 [Compound 23, 3-chloro-5-fluoro-N-[[3,3,5,5-tetradeuterio-1-[2-oxo-2-[[2,2,2-trideuterio-1-methyl-1-(trideuteriomethyl)ethyl]amino]ethyl]-4-piperidyl]methyl]benzamide] | 
9 | 1.42 µL/min/1e6 cells | 22.17 h | 100% | 100% | 0.132 h | 1.76 µL/min/pmol | CC(C)(C)NC(=O)CN1CCC(CNC(=O)c2cc(F)cc(Cl)c2)CC1 [Control, reference compound] | 
